Measured values: patent US20100113391A1, “BICYCLIC HETEROCYCLIC COMPOUND” (Astellas Pharma Inc., priority 2007, published 2010)

Experiments:
[1] = system: human platelets (platelet rich plasma), ADP-induced aggregation; experiment: Human platelet aggregation inhibitory activity measurement test (ADP-induced, PRP); type: cell-based; conditions: compound 10 μM (final concentration); ADP-induced aggregation of human PRP; area under the platelet aggregation curve
Experimental: Test Method (1) Human Platelet Aggregation Inhibitory Activity Measurement Test
Using a syringe in which 1/10 vol of a 3.8% sodium citrate solution is contained, blood was collected from a healthy volunteer (adult). The blood was subjected to a centrifugation at 160×g for 10 minutes and a supernatant platelet rich plasma (PRP) was separated. The remaining blood of which the PRP has been collected was subjected to a centrifugation at 1,800×g for 10 minutes and a platelet poor plasma (PPP) was separated. The number of the platelets in the PRP was measured using an automatic blood cell counter (MEK-6258, Nihon Kohden Corporation). After that, the PPP was added to the PRP to adjust the number of the platelets to 3×10^8 /ml, thereby using the platelets for the following tests. As an ADP, which is a platelet aggregating agent, a product manufactured by MC Medical Inc. was used. The platelet aggregation was measured using a platelet aggregometer (MCM Hematracer 212; MC medical Inc.). That is, 80 μl of the PRP having the number of the platelets of 3×10^8 /ml and 10 μl of a test compound solution or solvent (10% DMSO or 10% DMSO-9% hydroxypropyl-β-cyclodextrin-4.5% d-mannitol) were incubated at 37° C. for 1 minute and then 10 μl of ADP (50 μM) was added to the mixture to cause platelet aggregation, thereby recording a variation in transmitted light for 5 minutes. An inhibition rate was calculated using an area under the platelet aggregation curve as an index. In addition, Ex represents a number of the compounds of Examples.

[2] = molecular target: T1, Human P2Y12 (Homo sapiens, UniProt Q9H244); experiment: Substitution test for the binding between human P2Y12 and 2-methylthio-ADP (2-MeS-ADP); conditions: compound 30 nM (final concentration); [33P]-2-MeS-ADP binding to P2Y12 protein-expressing C6-15 cell membrane fraction
T1 construct: expressed in transfected cells
T1 sequence (Q9H244 whole entry): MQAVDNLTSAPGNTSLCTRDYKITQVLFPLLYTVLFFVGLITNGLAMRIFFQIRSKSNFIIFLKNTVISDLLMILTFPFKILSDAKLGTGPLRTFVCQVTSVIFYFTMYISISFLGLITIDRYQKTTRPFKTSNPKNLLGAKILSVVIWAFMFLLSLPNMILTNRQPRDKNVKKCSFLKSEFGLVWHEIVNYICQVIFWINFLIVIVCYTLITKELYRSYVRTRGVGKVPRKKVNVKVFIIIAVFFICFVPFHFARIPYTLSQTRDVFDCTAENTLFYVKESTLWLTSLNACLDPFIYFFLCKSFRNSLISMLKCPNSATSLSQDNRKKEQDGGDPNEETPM
Experimental: Test Method (2) Substitution Test for the binding between Human P2Y12 and 2-methylthio-ADP(2-MeS-ADP)
In a 10 cm petri dish, C6-15 cells were spread to be 1×10^6 of cells by using a DMEM culture medium and cultured for 1 day. After that, genes of plasmids such as 8 μg of pEF-BOS-dhfr-human P2Y12 and 0.8 μg of pEF-BOS-neo (Nucleic Acid Res., 18, 5322, 1990) were introduced to the cells using a transfection reagent (LipofectAMINE 2000; manufactured by GIBCO BRL Inc.).
After 24 hours since the above-mentioned gene introduction operation had been completed, the cells to which the genes were introduced were recovered and suspended in a DMEM culture medium containing 0.6 mg/ml of G418 (manufactured by GIBCO BRL Inc.). After that, the cells were serially diluted and spread on a 10 cm petri dish. Colonies appeared after 2 weeks later were individually collected and used in the following tests as P2Y12 protein-expressing C6-15 cells (WO 02/36631, Mol. Pharmacol., 60, 432, 2001).
The P2Y12 protein-expressing C6-15 cells were cultured and then the cells were recovered. The cells were washed with PBS, suspended in 20 mM Tris-HCl (pH 7.4) containing 5 mmol/l EDTA and Complete™ (manufactured by Boehringer Mannheim) which is a protease inhibitor cocktail set, and homogenized by Polytron. The cells were subjected to an ultracentrifugation and a precipitate is suspended in 50 mM Tris-HCl (pH 7.4) containing 1 mM of EDTA, 100 mM NaCl, and Complete™ to perform membrane fraction.
To 100 μl of the P2Y12 protein-expressing C6-15 cell membrane fraction (100 μg/ml) produced as mentioned above, 1.5 μl of a test compound solution and 50 μl of 0.75 nM [^33P]-2-MeS-ADP (2100 Ci/mmol, manufactured by PerkinElmer Inc.) were added. The mixture was incubated in 50 mM Tris-HCl (pH 7.4) containing 100 mM NaCl and 50 mM MgCl2 at room temperature for 1 hour, and then recovered by cell harvest on a glass filter. Microscintillators were added to the glass filter and the radioactive activity was measured by a liquid scintillation counter. In addition, simultaneously, the radioactivity in the case where only a solvent is added to the above-mentioned test and in the case where 1.5 μl of 250 μM ADP is added thereto were measured respectively as the total binding amount and the nonspecific binding amount. The total binding amount and the nonspecific binding amount were set respectively as the inhibition rate of 0% and the inhibition rate of 100% to calculate the inhibition rate (%) of the test compound.

[3] = system: rat platelets (PRP), ADP-induced aggregation; experiment: Rat platelet aggregation inhibition test (ex vivo after oral administration); type: in vivo; conditions: male SD rat, 30 mg/kg orally, blood collected 2 hours after administration; ADP-induced aggregation of PRP
Experimental: Test Method (3) Rat Platelet Aggregation Inhibition Test and Measurement of Test Compound Concentration in Plasma
An aqueous sodium hydroxide solution and the same amount of a 1% aqueous methyl cellulose solution were added to the compound of the invention to prepare a 0.5% aqueous methyl cellulose solution or a suspension solution. This preparation solution was orally administered to a male SD rat (5 to 7 weeks old) which has been fasted over 12 hours using a sonde at a dose of 30 mg/kg. After 2 hours later since the administration of the compound, using a syringe in which 1/10 vol of a 3.8% sodium citrate solution is contained, a blood was collected. In the same manner as in Test Method (1), a PPP and a PRP having the number of the platelets as 3×10^8 /ml were prepared. 90 μl of the PRP having the number of the platelets of 3×10^8 /ml was incubated at 37° C. for 1 minute and then 10 μl of ADP (50 μM) was added thereto to cause platelet aggregation, thereby recording a variation in transmitted light for 5 minutes. An inhibition rate was calculated using an area under the platelet aggregation curve as an index.

| SMILES | inhibition at 10 µM [1] [%] | inhibition at 0.03 µM [2] [%] | % Inhibition [3] [%] |
| --- | --- | --- | --- |
| O=C(O)COn1c(=O)c2cc(F)c(NC3CCCCC3)cc2n(C2CCCC2)c1=O [Example 24, {[7-(cyclohexylamino)-1-cyclopentyl-6-fluoro-2,4-dioxo-1,4-dihydroquinazolin-3(2H)-yl]oxy}acetic acid] | 89 | 60 |  |
| O=C(O)CNC(=O)Cn1c(=O)c2cc(F)c(NC3CCCCC3)cc2n(C2CCCC2)c1=O [Example 42] | 75 | 56 |  |
| O=C(O)/C=C/Cn1c(=O)c2cc(F)c(NC3CCCCC3)cc2n(C2CCCC2)c1=O [Example 65] | 86 |  | 56 |
| O=C(O)Cn1c(=O)c2cc(F)c(NCC3CC3)cc2n(C2CCCC2)c1=O [Example 69] | 50 |  |  |
| CC(C)n1c(=O)n(CCCC(=O)O)c(=O)c2cc(F)c(NC3CCCCC3)cc21 [Example 77] | 88 |  |  |
| CC(CCn1c(=O)c2cc(F)c(NC3CCCCC3)cc2n(C2CCCC2)c1=O)C(=O)O (centres unmarked) [Example 114] | 91 | 71 | 90 |
| O=C(O)CCCNn1c(=O)c2cc(F)c(NC3CCCCC3)cc2n(C2CCCC2)c1=O [Example 155] | 93 | 72 |  |
| O=C(O)COc1cccc(Cn2c(=O)c3cc(F)c(NC4CCCCC4)cc3n(C3CCCC3)c2=O)c1 [Example 157] |  | 67 |  |
